Data published in patent publication US20240299348A1, “MODULATORS OF TRPML, THEIR COMPOSITIONS AND METHODS OF USE” (Caraway Therapeutics, Inc., priority 2021, published 2024).

Legend:
Assay type in all cases: cell-based
hTRPML3 = target: T1, hTRPML3 (Homo sapiens, UniProt Q8TDD5); assay: TRPML3 fluorescent (Fluo-4) assay; details: activation; read-out: Secondary Screening: Fluo-4: hTRPML3: EC50
T1 construct: expressed in transfected cells; host or cells: HEK-293 Trex (by analogy, 'performed as above')
T1 sequence (Q8TDD5 1-553): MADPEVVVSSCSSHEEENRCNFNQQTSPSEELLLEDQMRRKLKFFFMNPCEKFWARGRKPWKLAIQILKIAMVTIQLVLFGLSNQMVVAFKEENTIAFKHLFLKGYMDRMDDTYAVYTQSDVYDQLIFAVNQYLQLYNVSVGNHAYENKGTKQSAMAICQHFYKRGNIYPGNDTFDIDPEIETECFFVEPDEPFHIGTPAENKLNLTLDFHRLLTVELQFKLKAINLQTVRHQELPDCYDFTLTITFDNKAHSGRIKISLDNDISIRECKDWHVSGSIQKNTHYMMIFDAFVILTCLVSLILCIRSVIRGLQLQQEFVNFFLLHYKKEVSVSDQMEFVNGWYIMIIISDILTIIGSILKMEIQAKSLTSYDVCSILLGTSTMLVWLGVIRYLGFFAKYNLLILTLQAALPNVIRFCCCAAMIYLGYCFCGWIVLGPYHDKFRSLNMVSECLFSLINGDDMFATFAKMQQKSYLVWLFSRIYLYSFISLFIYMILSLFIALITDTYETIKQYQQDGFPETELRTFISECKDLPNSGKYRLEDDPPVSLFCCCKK
Description: (§1) Assays for TRPML2 and TRPML3 were performed as above for TRPML1, by substituting the appropriate TRPML2 or TRPML3 subtype for the TRPML1.
(§2) EC50 values were calculated using a non-linear regression of Prism.

hTRPML1 = hTRPML1 (Homo sapiens, UniProt Q9GZU1); assay: TRPML1 fluorescent (Fluo-4) assay; design: Secondary Screening: Fluo-4: hTRPML1: EC50 (M); HEK-293 Trex cells expressing hTRPML1; details: activation; HEK-293 Trex cells expressing hTRPML1; read-out: Secondary Screening: Fluo-4: hTRPML1: EC50
Description: HEK-293 Trex cells were stably transfected with a construct consisting of the human coding sequence for TRPML1 cloned into the […] plasmid pCDNA5 T/O. Mutations were introduced into the TRPML1 sequence to facilitate expression on the cell surface (Silvia Vergarajauregui, Rosa Puertollano Traffic. 2006 March; 7(3): 337-353). Briefly, the cells are cultured in 150 mm round tissue culture dishes containing 20 mL of media. The day before the assay the cells are rinsed with DPBS—Ca—Mg and then treated briefly with Trypsin-EDTA. The Trypsin-EDTA is diluted with growth media, and cells are counted. 38×10^6 cells are re-plated into 150 mm round tissue culture dishes in media containing 0.5 ug/mL doxycycline to induce expression of hTRPML1.
The day of the experiment cells are lifted from the plates as above and collected by centrifugation. The cells are then suspended in dye loading buffer consisting of Ringer's solution supplemented with 0.1% Pluronic Acid and 1 micromolar Fluo4-AM dye. Cells are loaded for ˜60 minutes in the dark with occasional mixing. The cells are collected by centrifugation, the loading media aspirated, and the cells resuspended in 25 mL Ringer's solution and incubated ˜60 minutes in the dark. The cells are again collected by centrifugation, rinsed in Ringer's Solution and resuspended to 0.2×10^6 cells/mL in modified Ringer's solution containing 10 mM calcium.
Compounds are dissolved to a concentration of 10 millimolar with DMSO. Compound plates are created by dispensing compounds into 384 well black wall clear bottom plates (Greiner 781091). Positive and negative controls are included on each plate. Typically, different amounts of each compound are tested ranging from 100 nanoMoles (20 micromolar final concentration) decreasing in half-log steps to 31 picoMoles (6 nanomolar final concentration). Each concentration is typically tested in triplicate.
50 microliters of dye-loaded cells are dispensed into each well of the compound assay plate created above. The fluorescence in each well is then determined with an excitation wavelength of 480 nm and an emission wavelength of 540 nm using either a Molecular Devices SpectraMax multimode plate reader or a Hamamatsu FDSS/uCell plate imager.
The resulting fluorescence for each well is exported as an ascii file and loaded into our LIMS for analysis. The percent activity of each compound at each concentration is determined by comparison to the positive and negative control wells included in each plate.
as §2

hTRPML2 = target: T2, hTRPML2 (Homo sapiens, UniProt Q8IZK6); assay: TRPML2 fluorescent (Fluo-4) assay; details: activation; read-out: Secondary Screening: Fluo-4: hTRPML2: EC50
T2 construct: expressed in transfected cells; host or cells: HEK-293 Trex (by analogy, 'performed as above')
T2 sequence (Q8IZK6 1-566): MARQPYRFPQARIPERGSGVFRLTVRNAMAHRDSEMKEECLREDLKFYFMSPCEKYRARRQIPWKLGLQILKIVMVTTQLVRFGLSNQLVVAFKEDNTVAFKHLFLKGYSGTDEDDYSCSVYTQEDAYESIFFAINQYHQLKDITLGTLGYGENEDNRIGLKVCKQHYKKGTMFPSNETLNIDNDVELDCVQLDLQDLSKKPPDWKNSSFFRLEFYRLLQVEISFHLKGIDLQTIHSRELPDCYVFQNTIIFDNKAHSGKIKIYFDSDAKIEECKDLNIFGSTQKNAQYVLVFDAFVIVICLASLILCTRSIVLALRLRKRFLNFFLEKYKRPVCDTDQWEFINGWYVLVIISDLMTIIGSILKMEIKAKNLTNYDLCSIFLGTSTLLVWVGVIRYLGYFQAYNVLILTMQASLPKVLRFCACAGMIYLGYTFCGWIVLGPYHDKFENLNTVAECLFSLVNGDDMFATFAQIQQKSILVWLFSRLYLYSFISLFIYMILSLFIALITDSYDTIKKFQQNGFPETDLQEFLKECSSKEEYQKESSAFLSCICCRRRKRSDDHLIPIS
Description: as §1, §2

hTRPML1, sequence (Q9GZU1 whole entry L15A/L16A/L577A/L578A, form open): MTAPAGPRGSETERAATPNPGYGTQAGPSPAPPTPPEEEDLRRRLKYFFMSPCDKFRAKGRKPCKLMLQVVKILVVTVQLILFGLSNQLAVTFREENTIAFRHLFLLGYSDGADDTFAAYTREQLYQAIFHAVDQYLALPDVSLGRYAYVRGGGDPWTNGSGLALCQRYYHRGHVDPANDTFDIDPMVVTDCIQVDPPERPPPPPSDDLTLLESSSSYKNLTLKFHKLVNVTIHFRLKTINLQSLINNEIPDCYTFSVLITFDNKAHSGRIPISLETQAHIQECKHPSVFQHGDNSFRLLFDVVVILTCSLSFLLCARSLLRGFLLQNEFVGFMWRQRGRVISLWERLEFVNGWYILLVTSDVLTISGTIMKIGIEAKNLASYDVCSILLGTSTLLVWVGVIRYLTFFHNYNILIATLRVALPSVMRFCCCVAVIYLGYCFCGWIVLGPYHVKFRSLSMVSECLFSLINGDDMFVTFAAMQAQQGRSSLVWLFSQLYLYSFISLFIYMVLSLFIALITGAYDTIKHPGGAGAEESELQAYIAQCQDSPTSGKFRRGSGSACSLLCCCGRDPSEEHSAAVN

SMILES	EC50 (hTRPML3)	EC50 (hTRPML1)	EC50 (hTRPML2)
CN(C)S(=O)(=O)c1ccc(S(=O)(=O)N[C@H]2CCCC[C@@H]2N2CCN(c3ccccc3F)CC2)cc1 (relative stereo) [Compound 116, trans-N^1-(2-(4-(2-fluorophenyl)piperazin-1-yl)cyclohexyl)-N^4,N^4-dimethylbenzene-1,4-disulfonamide]	300 to 1000 nM	1000 to 5000 nM	
Cc1ccc(S(=O)(=O)N[C@H]2CCCC[C@@H]2N2CCN(c3ccc(Cl)cc3F)CC2)cc1 (relative stereo) [Compound 117, trans-N-(2-(4-(4-chloro-2-fluoro-phenyl)piperazin-1-yl)cyclohexyl)-4-methylbenzene-sulfonamide]	< 300 nM	300 to 1000 nM	
CN(C)S(=O)(=O)c1ccc(S(=O)(=O)N[C@@H]2CCCCC[C@H]2N2CCN(c3ccc(Cl)cc3F)CC2)cc1 (relative stereo) [Compound 120, trans-N^1-(2-(4-(4-chloro-2-fluorophenyl)piperazin-1-yl)cycloheptyl)-N^4,N^4 dimethylbenzene-1,4-disulfonamide]	300 to 1000 nM	< 300 nM	1000 to 5000 nM
CN(C)S(=O)(=O)c1ccc(S(=O)(=O)N[C@H]2CCCC[C@H]2N2CCN(c3ccc(Cl)cc3F)CC2)cc1 (stereo in doubt) [Compound 109, N^1-((1S,2R)-2-(4-(4-Chloro-2-fluorophenyl)piperazin-1-yl)cyclohexyl)-N^4,N^4-dimethylbenzene-1,4-disulfonamide]	300 to 1000 nM	1000 to 5000 nM	
CN([C@H]1CCN(c2ccc(Cl)cc2F)C1)[C@H]1CCCC[C@@H]1NS(=O)(=O)c1ccc(S(=O)(=O)N(C)C)cc1 (stereo in doubt) [Compound 119, trans-N^1-(2-(((S)-1-(4-chloro-2-fluorophenyl)-pyrrolidin-3-yl)(methyl)-amino)cyclohexyl)-N^4,N^4-dimethylbenzene-1,4-disulfonamide]		< 300 nM	> 5000 nM
CN(C)S(=O)(=O)c1ccc(S(=O)(=O)Nc2ccccc2N2CCC3(CN(c4ccc(Cl)cc4F)C3)C2)cc1 [Compound 102, N^1-(2-(2-(4-chloro-2-fluorophenyl)-2,6-diazaspiro[3.4]octan-6-yl)phenyl)-N^4,N^4-dimethylbenzene-1,4-disulfonamide]		300 to 1000 nM	
CN(C)S(=O)(=O)c1ccc(S(=O)(=O)Nc2ccccc2N2CCC3(CCN(c4ccc(Cl)cc4F)C3)C2)cc1 (stereo not shown) [Compound 103, N^1-(2-(7-(4-chloro-2-fluorophenyl)-2,7-diazaspiro[4.4]nonan-2-yl)phenyl)-N^4,N^4-dimethylbenzene-1,4-disulfonamide]		300 to 1000 nM	
CN(c1ccc(Cl)cc1F)C1CCN(c2ccccc2NS(=O)(=O)c2ccc(S(=O)(=O)N(C)C)cc2)C1 (stereo not shown) [Compound 104, N^1-(2-(3-((4-chloro-2-fluorophenyl)(methyl)amino)pyrrolidin-1-yl)phenyl)-N^4,N^4-dimethylbenzene-1,4-disulfonamide]		< 300 nM	
CN(C)S(=O)(=O)c1ccc(S(=O)(=O)N[C@H]2CCCC[C@@H]2N2CCN(c3ccc(Cl)cc3F)CC2)cc1 [Compound 105, N^1-((1S,2S)-2-(4-(4-chloro-2-fluorophenyl)piperazin-1-yl)cyclohexyl)-N^4,N^4-dimethylbenzene-1,4-disulfonamide]		300 to 1000 nM	
CN(C)S(=O)(=O)c1ccc(S(=O)(=O)Cc2ccccc2N2CCN(c3ccc(Cl)cc3F)CC2)cc1 [Compound 106, 4-(2-(4-(4-Chloro-2-fluorophenyl)piperazin-1-yl)benzylsulfonyl)-N,N-dimethylbenzenesulfonamide]		< 300 nM	
CN(C)S(=O)(=O)c1ccc(S(=O)(=O)Nc2ccccc2N2C[C@H]3C[C@@H]2CN3c2ccc(Cl)cc2F)cc1 [Compound 107, N^1-(2-((1R,4R)-5-(4-chloro-2-fluorophenyl)-2,5-diazabicyclo[2.2.1]heptan-2-yl)phenyl)-N^4,N^4-dimethylbenzene-1,4-disulfonamide]		300 to 1000 nM	
CN(C)S(=O)(=O)c1ccc(S(=O)(=O)Nc2ccccc2C2CCN(c3ccc(Cl)cc3F)CC2)cc1 [Compound 108, N^1-(2-(1-(4-chloro-2-fluorophenyl)piperidin-4-yl)phenyl)-N^4,N^4-dimethylbenzene-1,4-disulfonamide]	300 to 1000 nM	1000 to 5000 nM	
CN(c1ccccc1NS(=O)(=O)c1ccc(S(=O)(=O)N(C)C)cc1)[C@H]1CCN(c2ccc(Cl)cc2F)C1 [Compound 110, (S)-N^1-(2-((1-(4-chloro-2-fluorophenyl)pyrrolidin-3-yl)(methyl)amino)phenyl)-N^4,N^4-dimethylbenzene-1,4-disulfonamide]	< 300 nM	< 300 nM	
CN(c1ccccc1NS(=O)(=O)c1ccc(S(=O)(=O)N(C)C)cc1)[C@@H]1CCN(c2ccc(Cl)cc2F)C1 [Compound 111, (R)-N^1-(2-((1-(4-chloro-2-fluorophenyl)pyrrolidin-3-yl)(methyl)amino)phenyl)-N^4,N^4-dimethylbenzene-1,4-disulfonamide]	< 300 nM	300 to 1000 nM	
CN(c1ccccc1NS(=O)(=O)c1ccc(S(=O)(=O)N(C)C)cc1)C1CCN(c2ccccc2F)C1 (stereo not shown) [Compound 112, N^1-(2-((1-(2-Fluorophen-yl)pyrrolidin-3-yl)(meth-yl)amino)phenyl)-N^4,N^4-dimethylbenzene-1,4-disulfonamide]	< 300 nM	300 to 1000 nM	
CN(c1ccccc1NS(=O)(=O)c1ccc(S(=O)(=O)N(C)C)cc1)C1CCN(C(=O)OC(C)(C)C)C1 (stereo not shown) [Compound 114, tert-butyl 3-((2-((4-(N,N-dimethylsulfamoyl)phenyl)sulfonamido)phenyl)(methyl)amino)pyrrolidine-1-carboxylate]	300 to 1000 nM	1000 to 5000 nM	
CN(C)S(=O)(=O)c1ccc(S(=O)(=O)Nc2ccccc2N2CCN(C34CC(C3)C4)CC2)cc1 [Compound 115, N^1-(2-(4-(bicyclo[1.1.1]pentan-1-yl)piperazin-1-yl)phenyl)-N^4,N^4-dimethylbenzene-1,4-disulfonamide]	300 to 1000 nM	1000 to 5000 nM	
CN(C1CCCC[C@@H]1NS(=O)(=O)c1ccc(S(=O)(=O)N(C)C)cc1)[C@@H]1CCN(c2ccc(Cl)cc2F)C1 (stereo partly drawn) [Compound 118, trans-N^1-(2-(((R)-1-(4-Chloro-2-fluorophenyl)pyrrolidin-3-yl)(methyl)amino)cyclohexyl)-N^4,N^4-dimethylbenzene-1,4-disulfonamide]		< 300 nM	> 5000 nM
